In doi:10.1101/2024.12.23.630085, “Accurate sequence-to-affinity models for SH2 domains from multi-round peptide binding assays coupled with free-energy regression” (bioRxiv, 2025):
Non-standard residues stand in square brackets, D forms with d. Residues, ends and D or L forms follow the SMILES beside them. pY = N[C@@H](Cc1ccc(OP(=O)(O)O)cc1)C(=O)O

Each compound was assayed against T1, Grb2 SH2 domain (Homo sapiens, UniProt P62993) (assay: Competitive fluorescence polarization, Grb2 SH2). Settings: Table S3 unpaired validation; competition fluorescence polarization; probe FITC-Ahx-FDDPS(pY)VNVQN 30 nM; [SH2] 123 nM; mean.
T1 construct: one distantly-related SH2 domain from the adapter protein Grb2; His6-SUMO (N); mCh (only in the data set names 'Grb2mCh'; possibly an mCherry fusion, never explained); made in house
T1 sequence (P62993 60-152 limits assumed): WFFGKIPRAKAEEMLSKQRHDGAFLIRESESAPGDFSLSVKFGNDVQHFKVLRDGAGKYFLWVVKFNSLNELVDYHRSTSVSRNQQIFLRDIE
Assay type: binding
Source text: (§1) All peptides containing phosphorylated tyrosine, both fluorescently labelled and non-labelled, were produced by SynPeptide (China).

| Kd [nM] | Compound |
| --- | --- |
| 3240 | Ac-QIEVGT-pY-QNPHNG-NH2 [Syn-G2-7 (synthetic)] |
| 487 | Ac-QLGHQR-pY-HNITPG-NH2 [Syn-G2-5 (synthetic)] |
| 2250 | Ac-QHRLNN-pY-ENNRLG-NH2 [Syn-G2-6 (synthetic)] |
| 3.99 | Ac-QHNIHS-pY-INIPPG-NH2 [Syn-G2-2 (synthetic)] |
| 31.8 | Ac-QKEAHH-pY-VNWRTG-NH2 [Syn-G2-1 (synthetic)] |

These compounds were tested against T2, Fyn SH2 domain (Homo sapiens, UniProt P06241) (assay: Competitive fluorescence polarization, Fyn SH2). Settings: Table S3 unpaired validation; competition fluorescence polarization; probe FITC-Ahx-GDG-pY-EEISPLLL-NH2 0.4 nM; [SH2] 4.12 nM; mean.
T2 construct: The human SH2 domains from Fyn (142–248), Lyn (121–228); His6-SUMO (N, cleaved yes); made in house; host or cells: E. coli C43(DE3) with BirA helper plasmid
T2 sequence (P06241 142-248): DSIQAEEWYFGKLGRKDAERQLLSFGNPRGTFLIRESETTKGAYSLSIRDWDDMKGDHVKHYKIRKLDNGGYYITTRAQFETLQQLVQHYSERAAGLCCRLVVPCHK
Assay type: binding
Experimental: Next, the protein was eluted with elution buffer (50 mM Tris, pH 7.5, 50 mM NaCl, 250 mM imidazole, 10% glycerol) directly onto a 5 mL HiTrap Q HP anion exchange column (Cytiva). […] The biotinylated SH2 domain was then collected in a flowthrough after running the cleavage reaction over a HisTrap HP column.

| Kd [nM] | Compound |
| --- | --- |
| 30.2 | Ac-QLHVHP-pY-EKVEDG-NH2 [Syn-F-1 (synthetic)] |
| 18.3 | Ac-QMEKHV-pY-ESVTQG-NH2 [Syn-F-2 (synthetic)] |

Each compound was assayed against T3, c-Src SH2 domain (Homo sapiens, UniProt P12931) (assay: Competitive fluorescence polarization, c-Src SH2). Settings: Table S3 unpaired validation; competition fluorescence polarization; probe FITC-Ahx-GDG-pY-EEISPLLL-NH2 30 nM; [SH2] 123-126 nM; mean.
T3 construct: the SH2 domains of two closely-related kinases from the Src subfamily (c-Src and Fyn); made in house
Assay type: binding
Source text: as §1

| Kd [nM] | Compound |
| --- | --- |
| 9660 | Ac-QKEAHH-pY-VNWRTG-NH2 [Syn-G2-1 (synthetic)] |

Same assay, conditions: Table S5 single-amino-acid substitution pairs; competition fluorescence polarization; probe FITC-Ahx-GDG-pY-EEISPLLL-NH2 30 nM; [SH2] 240 nM; mean

| Compound | Kd [nM] |
| --- | --- |
| CC(=O)N[C@@H](CCC(N)=O)C(=O)N[C@@H](CO)C(=O)N[C@@H](CC(C)C)C(=O)N[C@@H](CCC(=O)O)C(=O)N[C@@H](CCCCN)C(=O)N[C@@H](CO)C(=O)N[C@@H](Cc1ccc(OP(=O)(O)O)cc1)C(=O)N[C@@H](CCC(=O)O)C(=O)N[C@@H](CC(C)C)C(=O)N[C@@H](CC(C)C)C(=O)N[C@@H](CC(=O)O)C(=O)NCC(=O)NCC(N)=O [ACTB pY240 P243L] (Ac-QSLEKS[pY]ELLDGG-NH2) | 6090 |
| CC[C@H](C)[C@H](NC(=O)CNC(=O)[C@H](CCC(=O)O)NC(=O)[C@@H](NC(=O)[C@H](CCC(N)=O)NC(C)=O)C(C)C)C(=O)N[C@@H](CO)C(=O)N[C@@H](Cc1ccc(OP(=O)(O)O)cc1)C(=O)N[C@@H](CC(=O)O)C(=O)N[C@@H](Cc1ccccc1)C(=O)N[C@H](C(=O)N1CCC[C@H]1C(=O)N[C@H](C(=O)NCC(N)=O)[C@@H](C)O)[C@@H](C)CC [CBS pY308 G307S] (Ac-QVEGIS[pY]DFIPTG-NH2) | 4280 |

The next lines start with the values.

| Kd [nM] | Compound |
| --- | --- |
| 3980 | CC[C@H](C)[C@H](NC(=O)[C@H](CC(C)C)NC(=O)[C@H](CO)NC(=O)[C@H](Cc1ccc(OP(=O)(O)O)cc1)NC(=O)[C@H](CCCNC(=N)N)NC(=O)[C@H](CCCNC(=N)N)NC(=O)[C@H](CCC(N)=O)NC(=O)[C@H](CC(=O)O)NC(=O)[C@H](CO)NC(=O)[C@H](CCC(N)=O)NC(C)=O)C(=O)N[C@@H](CC(=O)O)C(=O)N[C@@H](CCCNC(=N)N)C(=O)NCC(N)=O [CLIP2 pY972] (Ac-QSDQRR[pY]SLIDRG-NH2) |
| 4670 | CC[C@H](C)[C@H](NC(=O)[C@@H]1CCCN1C(=O)[C@H](CCC(N)=O)NC(C)=O)C(=O)N[C@@H](Cc1ccccc1)C(=O)N[C@@H](CCC(=O)O)C(=O)NCC(=O)N[C@@H](Cc1ccc(OP(=O)(O)O)cc1)C(=O)N[C@@H](C)C(=O)N[C@@H](CC(C)C)C(=O)N1CCC[C@H]1C(=O)N[C@@H](Cc1c[nH]cn1)C(=O)N[C@@H](C)C(=O)NCC(N)=O [ACTA1 pY171] (Ac-QPIFEG[pY]ALPHAG-NH2) |
| 9040 | CC(=O)N[C@@H](CCC(N)=O)C(=O)N[C@@H](CO)C(=O)N[C@@H](CC(C)C)C(=O)N[C@@H](CCC(=O)O)C(=O)N[C@@H](CCCCN)C(=O)N[C@@H](CO)C(=O)N[C@@H](Cc1ccc(OP(=O)(O)O)cc1)C(=O)N[C@@H](CCC(=O)O)C(=O)N[C@@H](CC(C)C)C(=O)N1CCC[C@H]1C(=O)N[C@@H](CC(=O)O)C(=O)NCC(=O)NCC(N)=O [ACTB pY240] (Ac-QSLEKS[pY]ELPDGG-NH2) |
| 2730 | CC[C@H](C)[C@H](NC(=O)CNC(=O)[C@H](CCC(=O)O)NC(=O)[C@@H](NC(=O)[C@H](CCC(N)=O)NC(C)=O)C(C)C)C(=O)NCC(=O)N[C@@H](Cc1ccc(OP(=O)(O)O)cc1)C(=O)N[C@@H](CC(=O)O)C(=O)N[C@@H](Cc1ccccc1)C(=O)N[C@H](C(=O)N1CCC[C@H]1C(=O)N[C@H](C(=O)NCC(N)=O)[C@@H](C)O)[C@@H](C)CC [CBS pY308] (Ac-QVEGIG[pY]DFIPTG-NH2) |
